Laboratory results published in paper PMC11722180, “Structure–Activity Relationship Studies of Tetracyclic Pyrrolocarbazoles Inhibiting Heterotetrameric Protein Kinase CK2” (Molecules, 2024).
Structures can show the parent of a compound that is named as a salt.

Columns and labels:
[1] = target: T1, CK2α/CK2β interaction (human CK2α1–335, human CK2β1–193) (Homo sapiens, UniProt P68400); assay: Microscale thermophoresis (MST) assay of the CK2α/CK2β subunit interaction; type: binding; details: for Ki / Inhibition of CK2α/CK2β Interaction Ki: MST, global analysis, KD′ = KD [1 + (ccompound/Ki)], n.s. = KD′ not significantly different from KD; for Ki: read-out: Inhibition of CK2α/CK2β Interaction Ki
T1 construct: human CK2α^1–335; made in house
T1 sequence (P68400 1-335): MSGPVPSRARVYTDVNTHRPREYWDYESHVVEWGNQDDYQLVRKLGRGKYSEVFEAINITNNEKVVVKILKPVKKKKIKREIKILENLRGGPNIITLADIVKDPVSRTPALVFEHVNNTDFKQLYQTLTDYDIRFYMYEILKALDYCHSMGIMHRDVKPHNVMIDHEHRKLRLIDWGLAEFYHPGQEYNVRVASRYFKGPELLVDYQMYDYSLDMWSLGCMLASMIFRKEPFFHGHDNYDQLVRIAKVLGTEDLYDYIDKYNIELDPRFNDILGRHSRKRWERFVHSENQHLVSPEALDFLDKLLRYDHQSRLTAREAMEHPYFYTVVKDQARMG
Protocol: A microscale thermophoresis (MST) assay was used to determine the interaction of the CK2α and CK2β subunits. In this assay, a constant concentration of the fluorescently labeled CK2β subunit was added to increasing concentrations of the CK2α subunit and the thermophoretic shift was recorded, respectively. […] The same experiment was performed in the presence of 20, 50, or 100 µM of the test compounds (see Table 1). An increased KD′ value in the presence of the test compounds was evaluated as the inhibition of the association of the CK2α and CK2β subunits. The increased KD′ value was then transformed together with the employed concentration of the test compound into the Ki value for the inhibition of the CK2α/CK2β association (formula see Supporting Information).
The compounds were investigated at a final concentration of 20, 50, or 100 µM. […] Data analysis and statistical evaluation were conducted with GraphPad Prism v.6 for Windows (GraphPad Software, La Jolla, CA, USA, www.graphpad.com).

[2] = test system: CK2; details: cited from earlier work

`CCOC(=O)[C@H]1c2[nH]c3ccccc3c2[C@H](c2cc(OC)c(OC)c(OC)c2)[C@@H]2C(=O)NC(=O)[C@@H]21` (racemic) [(±)-9a, Ethyl (3aRS,4SR,10RS,10aRS)-1,3-dioxo-10-(3,4,5-trimethoxyphenyl9a)-1,2,3,3a,4,5,10,10a-octahydropyrrolo[3,4-b]carbazole-4-carboxylate] showed a Kd [1] of 0.059 ± 0.025 µM and a Ki [1] of 32 µM.
In the case of `CCOC(=O)[C@@H]1c2[nH]c3ccccc3c2[C@@H](c2cc(OC)c(OC)c(OC)c2)[C@H]2C(=O)N(C)C(=O)[C@H]21` (racemic) [(±)-9b, Ethyl (3aRS,4SR,10RS,10aRS)-2-methyl-1,3-dioxo-10-(3,4,5-trimethoxyphenyl)-1,2,3,3a,4,5,10,10a-octahydropyrrolo[3,4-b]carbazole-4-carboxylate], the Kd [1] is reported as 0.014 ± 0.006 µM and the “Inhibition of CK2α/CK2β Interaction Ki” value [1] is reported as “n.s”.
Work on `COc1cc([C@@H]2c3c([nH]c4ccccc34)[C@@H](C(=O)O)[C@@H]3C(=O)NC(=O)[C@H]23)cc(OC)c1OC` (racemic) [(±)-10, (3aRS,4SR,10RS,10aRS)-1,3-Dioxo-10-(3,4,5-trimethoxyphenyl)-1,2,3,3a,4,5,10,10a-octahydropyrrolo[3,4-b]carbazole-4-carboxylic acid] yielded a Kd [1] of 0.758 ± 0.338 µM and a Ki [1] of 1.9 µM.
In the case of `CNC(=O)[C@@H]1c2[nH]c3ccccc3c2[C@@H](c2cc(OC)c(OC)c(OC)c2)[C@H]2C(=O)NC(=O)[C@H]21` (racemic) [(±)-11, (3aRS,4SR,10RS,10aRS)-N-Methyl-1,3-dioxo-10-(3,4,5-trimethoxyphenyl)-1,2,3,3a,4,5,10,10a-octahydropyrrolo[3,4-b]carbazole-4-carboxamide], the Kd [1] is reported as 0.132 ± 0.043 µM and the Ki [1] is reported as 6 µM.
With `COc1cc([C@@H]2c3c([nH]c4ccccc34)[C@@H](C(=O)NCc3ccccc3)[C@@H]3C(=O)NC(=O)[C@H]23)cc(OC)c1OC` (racemic) [(±)-12, (3aRS,4SR,10RS,10aRS)-N-Benzyl-1,3-dioxo-10-(3,4,5-trimethoxyphenyl)-1,2,3,3a,4,5,10,10a-octahydropyrrolo[3,4-b]carbazole-4-carboxamide] the Kd [1] was 0.062 ± 0.019 µM and the Ki [1] was 14 µM.
For `COc1cc([C@@H]2c3c([nH]c4ccccc34)[C@@H](C(=O)NCc3ccc(Cl)cc3)[C@@H]3C(=O)NC(=O)[C@H]23)cc(OC)c1OC` (racemic) [(±)-13, (3aRS,4SR,10RS,10aRS)-N-(4-Chlorobenzyl)-1,3-dioxo-10-(3,4,5-trimethoxyphenyl)-1,2,3,3a,4,5,10,10a-octahydropyrrolo[3,4-b]carbazole-4-carboxamide], the Kd [1] was 0.017 ± 0.003 µM and the “Inhibition of CK2α/CK2β Interaction Ki” value [1] was “n.s”.
`COc1cc([C@@H]2c3c([nH]c4ccccc34)[C@@H](C(=O)NCCc3c[nH]c4ccccc34)[C@@H]3C(=O)NC(=O)[C@H]23)cc(OC)c1OC` (racemic) [(±)-14, (3aRS,4SR,10RS,10aRS)-N-[2-(Indol-3-yl)ethyl]-1,3-dioxo-10-(3,4,5-trimethoxyphenyl)-1,2,3,3a,4,5,10,10a-octahydropyrrolo[3,4-b]carbazole-4-carboxamide] gave a Kd [1] of 0.158 ± 0.017 µM and a Ki [1] of 3.8 µM.
With `COc1cc([C@@H]2c3c([nH]c4ccccc34)[C@@H](C(=O)Nc3cccnc3)[C@@H]3C(=O)NC(=O)[C@H]23)cc(OC)c1OC` (racemic) [(±)-15, (3aRS,4SR,10RS,10aRS)-1,3-Dioxo-N-(pyridin-3-yl)-10-(3,4,5-trimethoxyphenyl)-1,2,3,3a,4,5,10,10a-octahydropyrrolo[3,4-b]carbazole-4-carboxamide] the Kd [1] was 0.089 ± 0.013 µM and the Ki [1] was 7.4 µM.
Work on `COc1cc([C@@H]2c3c([nH]c4ccccc34)[C@@H](C(=O)N3CCCCC3)[C@@H]3C(=O)NC(=O)[C@H]23)cc(OC)c1OC` (racemic) [(±)-16, (3aRS,4SR,10RS,10aRS)-4-[(Piperidin-1-yl)carbonyl]-10-(3,4,5-trimethoxyphenyl)-4,5,10,10a-tetrahydropyrrolo[3,4-b]carbazole-1,3(2H,3aH)-dione] yielded a Kd [1] of 0.072 ± 0.012 µM and a Ki [1] of 9.7 µM.
Work on `COc1cc([C@@H]2c3c([nH]c4ccccc34)[C@@H](C(=O)Nc3nc4ccccc4[nH]3)[C@@H]3C(=O)NC(=O)[C@H]23)cc(OC)c1OC` (racemic) [(±)-17, (3aRS,4SR,10RS,10aRS)-N-(1H-Benzimidazol-2-yl)-1,3-dioxo-10-(3,4,5-trimethoxyphenyl)-1,2,3,3a,4,5,10,10a-octahydropyrrolo[3,4-b]carbazole-4-carboxamide] yielded a Kd [1] of 0.093 ± 0.013 µM and a Ki [1] of 7.1 µM.
In the case of `CCOC(=O)[C@@H]1c2[nH]c3ccccc3c2[C@@H](c2ccc([N+](=O)[O-])cc2)[C@H]2C(=O)NC(=O)[C@H]21` (racemic) [(±)-21a, Ethyl (3aRS,4SR,10RS,10aRS)-10-(4-nitrophenyl)-1,3-dioxo-1,2,3,3a,4,5,10,10a-octahydropyrrolo[3,4-b]carbazole-4-carboxylate], the Kd [1] is reported as 0.02 ± 0.01 µM and the “Inhibition of CK2α/CK2β Interaction Ki” value [1] is reported as “n.s”.
With `CCOC(=O)[C@H]1c2[nH]c3ccccc3c2[C@H](c2ccc(N)cc2)[C@@H]2C(=O)NC(=O)[C@@H]21` (racemic) [(±)-22a, Ethyl (3aRS,4SR,10RS,10aRS)-10-(4-aminophenyl)-1,3-dioxo-1,2,3,3a,4,5,10,10a-octahydropyrrolo[3,4-b]carbazole-4-carboxylate∙HCl] the Kd [1] was 0.031 ± 0.011 µM and the “Inhibition of CK2α/CK2β Interaction Ki” value [1] was “n.s”.
For `CCOC(=O)[C@H]1c2[nH]c3ccccc3c2[C@H](c2ccc(N)cc2)[C@@H]2C(=O)N(Cc3ccccc3)C(=O)[C@@H]21` (racemic) [(±)-22c, Ethyl (3aRS,4SR,10RS,10aRS)-10-(4-aminophenyl)-2-benzyl-1,3-dioxo-1,2,3,3a,4,5,10,10a-octahydropyrrolo[3,4-b]carbazole-4-carboxylate∙HCl], the Kd [1] was 0.025 ± 0.015 µM, the “Inhibition of CK2α/CK2β Interaction Ki” value [1] was “n.s” and the “Inhibition of CK2α/CK2β Interaction Ki” value ([1]; listed as 22c) was “did not result in a significant inhibition”.
In the case of `CCOC(=O)[C@@H]1c2[nH]c3ccccc3c2[C@@H](c2ccc(NC(=O)c3ccc(OC)cc3)cc2)[C@H]2C(=O)N(Cc3ccccc3)C(=O)[C@H]21` (racemic) [(±)-23, Ethyl (3aRS,4SR,10RS,10aRS)-2-benzyl-10-[4-(4-methoxybenzamido)phenyl]-1,3-dioxo-1,2,3,3a,4,5,10,10a-octahydropyrrolo[3,4-b]carbazole-4-carboxylate], the Kd [1] is reported as 0.024 ± 0.009 µM, the “Inhibition of CK2α/CK2β Interaction Ki” value [1] is reported as “n.s” and the “Inhibition of CK2α/CK2β Interaction Ki” value ([1]; listed as 23) is reported as “did not result in a significant inhibition”.
For `Cc1ccc(N/C=C2\C(=O)CCc3c2oc2c(Cl)c(Cl)c(O)cc32)cc1` [2a], the IC50 ([2]; ATP competitive, read-out: CK2 inhibition IC50) is given as 0.029 µM.
Compound `COC(=O)[C@H](CO)NC(=O)[C@H]1c2[nH]c3ccccc3c2[C@H](c2cc(OC)c(OC)c(OC)c2)[C@@H]2C(=O)NC(=O)[C@@H]21` [(+)-18a, Methyl N-{[(3aS,4R,10S,10aS)-1,3-dioxo-10-(3,4,5-trimethoxyphenyl)-1,2,3,3a,4,5,10,10a-octahydropyrrolo[3,4-b]carbazol-4-yl]carbonyl}-(S)-serinate] has a Kd [1] of 0.072 ± 0.002 µM and a Ki [1] of 9.1 µM.
With `COC(=O)[C@H](CCSC)NC(=O)[C@@H]1c2[nH]c3ccccc3c2[C@@H](c2cc(OC)c(OC)c(OC)c2)[C@H]2C(=O)NC(=O)[C@H]21` [(–)-19b, Methyl N-{[(3aR,4S,10R,10aR)-1,3-dioxo-10-(3,4,5-trimethoxyphenyl)-1,2,3,3a,4,5,10,10a-octahydropyrrolo[3,4-b]carbazol-4-yl]carbonyl}-(S)-methioninate] the Kd [1] was 0.094 ± 0.024 µM and the Ki [1] was 7.7 µM.
In the case of `COC(=O)[C@H](Cc1c[nH]cn1)NC(=O)[C@@H]1c2[nH]c3ccccc3c2[C@@H](c2cc(OC)c(OC)c(OC)c2)[C@H]2C(=O)NC(=O)[C@H]21` [(–)-20b, methyl N-{[(3aR,4S,10R,10aR)-1,3-dioxo-10-(3,4,5-trimethoxyphenyl)-1,2,3,3a,4,5,10,10a-octahydropyrrolo[3,4-b]carbazol-4-yl]carbonyl}-(S)-histidinate], the Kd [1] is reported as 0.029 ± 0.007 µM and the “Inhibition of CK2α/CK2β Interaction Ki” value [1] is reported as “n.s”.
In the case of `NCc1cc(Cl)cc(-c2cccc3[nH]ccc23)c1` [CAM187], the “Effect on kinase activity of CK2” value [2] is given as “not significantly affected”.
